Experimental findings from US20080261810A1, “Insecticides Based on Neonicotinoids and Safeners” (priority 2004, published 2008) are described below.

In data set [1] the test system is caterpillars of the diamond back moth (Plutella xylostella, sensitive strain). The conditions noted are these: in vivo. On the procedure:
After the desired period of time, the kill in % is determined. 100% means that all caterpillars have been killed; 0% means that none of the caterpillars have been killed. The determined kill rates are entered into Colby's formula.

The test system of data set [2] is green peach aphid (Myzus persicae). The data set is classed as in vivo. On the procedure:
To produce a suitable preparation of active compound, 1 part by weight of active compound is mixed with the stated amounts of solvent and emulsifier, and the concentrate is diluted with emulsifier-containing water to the desired concentration.
Cabbage leaves (Brassica oleracea) which are heavily infested by the green peach aphid (Myzus persicae) are treated by being dipped into the preparation of active compound of the desired concentration.
After the desired period of time, the kill in % is determined. 100% means that all aphids have been killed; 0% means that none of the aphids have been killed. The determined kill rates are entered into Colby's formula.

Read-outs that look alike come from different tables or passages of the source.

For `O=[N+]([O-])/N=C1\NCCN1Cc1ccc(Cl)nc1` [Imidacloprid, imidacloprid], the “Mortality in % after 1^d” value in data set [1] stood at 40%; in data set [2] (in vivo) it was 45%.
`CN/C(=N\[N+](=O)[O-])NCc1cnc(Cl)s1` [Clothianidin, clothianidin]: in data set [2] (0.8 ppm, active compound alone), the “Mortality in % after 1^d” value is given as 40%.
